Laboratory results published in patent US20230017045A1, “PYRIDINE AND PYRIMIDINE CARBOXYLATE HERBICIDES AND METHODS OF USE THEREOF” (Dow AgroSciences LLC, priority 2017, published 2023).
Where two headings read alike, the source gives them in different places.

Test system: test plant species
Experiment: Post-emergent herbicidal activity test (greenhouse, foliar spray, visual growth reduction)
Format: in vivo
Settings: post-emergence, 336 h, 140 g ai/ha, 14 days after application
Protocol: Post-emergent Test: Seeds or nutlets of the desired test plant species were planted in Sun Gro Metro-Mix® 360 planting mixture, which typically has a pH of 6.0 to 6.8 and an organic matter content of about 30 percent, in plastic pots with a surface area of 64 square centimeters. In some aspects, to ensure good germination and healthy plants, a fungicide treatment and/or other chemical or physical treatment was applied. The plants were grown for 7-21 d in a greenhouse with an approximate 15 h photoperiod which was maintained at 23-29° C. during the day and 22-28° C. during the night. Nutrients and water were added on a regular basis and supplemental lighting was provided with overhead metal halide 1000-Watt lamps as necessary. Plants were used for testing when they reached the first or second true leaf stage. A weighed amount, determined by the highest rate to be tested, of each test compound was placed in a 25 mL glass vial and was dissolved in 4 mL of a 97:3 v/v mixture of acetone and DMSO to obtain concentrated stock solutions. […] The concentrated stock solutions obtained were diluted with 20 mL of an aqueous mixture containing acetone, water, isopropyl alcohol, DMSO, […] crop oil concentrate, and X-77 surfactant in a 48.5:39:10:1.5:1.0:0.02 v/v ratio to obtain spray solutions containing the application rate. Compound requirements are based upon a 12 mL application volume at a rate of 187 liters per hectare (L/ha). Formulated compounds were applied to the plant material with an overhead Mandel track sprayer equipped with […] nozzles calibrated to deliver 187 L/ha over an application area of 0.64 square meters at a spray height of 18 inches (43 cm) above the average plant canopy height. Control plants were sprayed in the same manner with the solvent blank. The treated plants and control plants were placed in a greenhouse as described above and watered by subirrigation to prevent wash-off of the test compounds. After 14 d, the condition of the test plants as compared with that of the nontreated and control plants was determined visually and scored on a scale of 0 to 100 percent where 0 corresponds to no injury and 100 corresponds to complete control. In the reporting of the results, Table A: Percent Growth Reduction Conversion Table was used.

[1] = ALOMY: blackgrass (Alopecurus myosuroides), read-out: Visual Growth Reduction (%) 14 Days After Application, ALOMY
[2] = AMARE: redroot pigweed (Amaranthus retroflexus), read-out: Visual Growth Reduction (%) 14 Days After Application, AMARE
[3] = AVEFA: wild oat (Avena fatua), read-out: Visual Growth Reduction (%) 14 Days After Application, AVEFA
[4] = CHEAL: lambsquarters (Chenopodium album), read-out: Visual Growth Reduction (%) 14 Days After Application, CHEAL
[5] = CIRAR: canada thistle (Cirsium arvense), read-out: Visual Growth Reduction (%) 14 Days After Application, CIRAR
[6] = CYPES: yellow nutsedge (Cyperus esculentus), read-out: Visual Growth Reduction (%) 14 Days After Application, CYPES
[7] = DIGSA: crabgrass (Digitaria sanguinalis), read-out: Visual Growth Reduction (%) 14 Days After Application, DIGSA
[8] = ECHCG: barnyardgrass (Echinochloa crus-galli), read-out: Visual Growth Reduction (%) 14 Days After Application, ECHCG
[9] = IPOHE: ivy-leaf morning glory (Ipomoea hederacea), read-out: Visual Growth Reduction (%) 14 Days After Application, IPOHE
[10] = ORYSA: rice (Oryza sativa), read-out: Visual Growth Reduction (%) 14 Days After Application, ORYSA
[11] = SETFA: giant foxtail (Setaria faberi), read-out: Visual Growth Reduction (%) 14 Days After Application, SETFA
[12] = SORVU: grain sorghum (Sorghum vulgare), read-out: Visual Growth Reduction (%) 14 Days After Application, SORVU
[13] = STEME: common chickweed (Stellaria media), read-out: Visual Growth Reduction (%) 14 Days After Application, STEME
[14] = TRZAS: wheat, spring (Triticum aestivum), read-out: Visual Growth Reduction (%) 14 Days After Application, TRZAS

Compound | pest or weed control at 140 g/ha [1] | pest or weed control at 140 g/ha [2] | pest or weed control at 140 g/ha [3] | pest or weed control at 140 g/ha [4] | pest or weed control at 140 g/ha [5] | pest or weed control at 140 g/ha [6] | pest or weed control at 140 g/ha [7] | pest or weed control at 140 g/ha [8] | pest or weed control at 140 g/ha [9] | pest or weed control at 140 g/ha [10] | pest or weed control at 140 g/ha [11] | pest or weed control at 140 g/ha [12] | pest or weed control at 140 g/ha [13] | pest or weed control at 140 g/ha [14] | pest or weed control at 140 g/ha (KCHSC: kochia (Bassia scoparia), read-out: Visual Growth Reduction (%) 14 Days After Application, KCHSC)
O=C(O)c1nc(-c2ccc(Cl)c(F)c2F)ccc1Cl [F70, 3-Chloro-6-(4-chloro-2,3-difluorophenyl) picolinic acid] | 0 to 29% | 95 to 100% | 0 to 29% | 95 to 100% | 75 to 84% | 75 to 84% | 60 to 74% | 45 to 59% | 85 to 94% | 0 to 29% | 30 to 44% | 85 to 94% | 60 to 74% |  | 
COC(=O)c1nc(-c2ccc(Cl)c(F)c2F)ccc1Cl [F71, Methyl 3-chloro-6-(4-chloro-2,3-difluorophenyl) picolinate] | 0 to 29% | 95 to 100% | 0 to 29% | 95 to 100% | 75 to 84% | 60 to 74% | 75 to 84% | 0 to 29% | 95 to 100% | 30 to 44% |  | 75 to 84% | 45 to 59% |  | 
COC(=O)c1nc(-c2ccc(Cl)cc2)c(N)cc1Cl [F72, methyl 5-amino-3-chloro-6-(4-chlorophenyl)picolinate] | 0 to 29% | 0 to 29% | 0 to 29% | 0 to 29% | 0 to 29% | 0 to 29% | 0 to 29% | 0 to 29% |  | 0 to 29% | 0 to 29% | 0 to 29% | 0 to 29% | 0 to 29% | 
COc1c(Cl)ccc(-c2nc(C(=O)O)c(Cl)c(Cl)c2F)c1F [F73, 3,4-Dichloro-6-(4-chloro-2-fluoro-3-methoxyphenyl)-5-fluoropicolinic acid] | 0 to 29% | 0 to 29% | 0 to 29% | 95 to 100% | 0 to 29% | 0 to 29% | 0 to 29% | 0 to 29% |  | 0 to 29% | 0 to 29% | 0 to 29% | 0 to 29% | 0 to 29% | 
COC(=O)c1nc(-c2ccc(Cl)c(OC)c2F)c(F)c(Cl)c1Cl [F74, Methyl 3,4-dichloro-6-(4-chloro-2-fluoro-3-methoxyphenyl)-5-fluoropicolinate] | 0 to 29% | 0 to 29% | 0 to 29% | 30 to 44% | 0 to 29% | 0 to 29% | 0 to 29% | 0 to 29% | 0 to 29% | 0 to 29% | 0 to 29% | 0 to 29% | 0 to 29% | 0 to 29% | 
COc1c(Cl)ccc(-c2cc(Cl)c(Cl)c(C(=O)O)n2)c1F [F75, 3,4-Dichloro-6-(4-chloro-2-fluoro-3-methoxyphenyl) picolinic acid] | 0 to 29% | 85 to 94% | 0 to 29% | 95 to 100% | 30 to 44% | 0 to 29% | 0 to 29% | 95 to 100% | 30 to 44% | 0 to 29% | 45 to 59% | 0 to 29% | 30 to 44% | 0 to 29% | 
COC(=O)c1nc(-c2ccc(Cl)c(OC)c2F)cc(Cl)c1Cl [F76, methyl 3,4-dichloro-6-(4-chloro-2-fluoro-3-methoxyphenyl)picolinate] | 0 to 29% | 30 to 44% | 0 to 29% | 45 to 59% | 0 to 29% | 30 to 44% | 0 to 29% | 0 to 29% | 30 to 44% | 0 to 29% | 0 to 29% | 0 to 29% | 0 to 29% | 0 to 29% | 
CCOC(=O)c1nc(-c2ccc(Cl)c(OC)c2F)cc(OCC)c1N [F77, ethyl 3-amino-6-(4-chloro-2-fluoro-3-methoxyphenyl)-4-ethoxypicolinate] | 0 to 29% |  | 0 to 29% | 45 to 59% | 0 to 29% | 0 to 29% | 0 to 29% | 0 to 29% | 0 to 29% | 0 to 29% | 0 to 29% | 0 to 29% | 0 to 29% | 0 to 29% | 
COc1c(Cl)ccc(-c2ccc(Cl)c(C(=O)O)n2)c1F [F78, 3-chloro-6-(4-chloro-2-fluoro-3-methoxyphenyl)picolinic acid] | 0 to 29% | 45 to 59% | 0 to 29% | 75 to 84% | 60 to 74% | 0 to 29% | 0 to 29% | 0 to 29% | 45 to 59% | 0 to 29% | 0 to 29% | 0 to 29% | 30 to 44% | 0 to 29% | 
O=C(OCc1cccnc1)c1nc(-c2ccc(C(F)(F)F)cc2Cl)ccc1Cl [F79, Pyridin-3-ylmethyl 3-chloro-6-(2-chloro-4-(trifluoromethyl)phenyl)picolinate] | 60 to 74% | 95 to 100% | 75 to 84% | 95 to 100% | 85 to 94% | 0 to 29% | 95 to 100% | 95 to 100% | 95 to 100% | 30 to 44% | 95 to 100% | 95 to 100% | 0 to 29% | 75 to 84% | 95 to 100%
